Values quoted from earlier work in patent US6740517B2, “Incubation method for obtaining solid culture of Zang Zhi, solid culture obtained therefrom, processed products and use thereof” (priority 2001, dated 2004).

Legend:
[1] = tested on: mouse with the acute hepatitis induced by CCl4
[2] = tested on: lymphoma cells of a p-388 mouse

Compound | GPT in the blood [1] | inhibition to agglutination of blood platelets (blood platelets) | inhibition to the lymphoma cells of a p-388 mouse [2]
3,11-dioxo-8,23-dien-26-oic acid | reduce GPT |  | 
C=C(CC[C@@H](C)[C@H]1CC[C@H]2C3=C(C(=O)C[C@]12C)[C@@]1(C)CCC(=O)[C@@H](C)[C@@H]1CC3=O)C(C)C(=O)O (stereo partly drawn) [Zhankuic acid A] |  | conspicuous inhibition | conspicuous inhibition
